From patent US20260076952A1, “Agent for Treatment of Neutropenia” (Eberhard Karls Universität Tübingen Medizinische Fakultät, priority 2023, published 2026)
“Also recorded” adds a separate entry of the source.

How the values were obtained:
[1] = tested on: human primary neutrophils of healthy donor; assay: RealTime-Glo MT Cell Viability Assay on human primary neutrophils; format: cell-based; conditions: 40 nM, compared with 0.1% DMSO
Text: The assay measures the reducing potential of viable cells in an ATP-independent manner and the nonlytic nature, high sensitivity and rapid response of the assay make it possible to track the cell viability over time in the same plate. Ficoll-Paque density gradient media (density: 1.077 g/mL) used for isolation of peripheral blood polymononuclear cell (PBPMNs) 1 of healthy donors.

[2] = tested on: in vitro generated neutrophils; assay: Annexin V apoptosis assay on in vitro generated neutrophils; format: cell-based, human; conditions: day 13 of LCD, four healthy donors
[3] = tested on: CD34+ HSPCs of healthy donors; assay: RealTime-Glo MT Cell Viability Assay on CD34+ HSPCs; format: cell-based, human; conditions: 40 nM, 48 hours, versus DMSO-treated group
[4] = tested on: in vitro generated neutrophils; assay: RealTime-Glo MT cell viability assay on in vitro generated neutrophils; format: cell-based, human; conditions: day 13 of LCD, four healthy donors
[5] = tested on: primary bone marrow CD34+ HSPCs of ELANE-CN, HAX1-CN, JAGN1-CN and SRP54-CN patients; assay: CFU assay of primary bone marrow CD34+ HSPCs of CN patients; format: cell-based, human; conditions: two ELANE-CN, one HAX1-CN, one SRP54-CN patient, 40 nM
Text: FIG. 4A. […] Data represent means±SD from two independent experiments. *P<0.05, **P<0.01.

[6] = tested on: primary bone marrow CD34+ HSPCs of healthy donors; assay: Granulocytic liquid culture differentiation (LCD) of healthy donor CD34+ HSPCs; format: cell-based, human; conditions: for neutrophil count, morphological examination of cytospin preparations: day 14
Procedure: (§1) CD34+ cells were seeded in a 24-well plate at a density of 2×10^5 cells/ml. […] Medium was exchanged every second day. On day 7, cells were plated in RPMI 1640 GlutaMAX supplemented with 10% FBS, 1% penicillin/streptomycin and 10 ng/ml G-CSF. On day 14, cells were analyzed by flow cytometry using following mouse anti-human antibodies: CD34 (BD, #348811), CD33 (BioLegend, #303416), CD45 (BioLegend, #304036), CD11b (BD, #557754), CD15 (BD, #555402), CD66b (BioLegend, #305114), CD16 (BD, #561248).

[7] = tested on: CD34+ HSPCs of healthy donors; assay: Annexin V apoptosis assay on CD34+ HSPCs; format: cell-based, human; conditions: 40 nM, 48 hours
[8] = tested on: hax1-knock-down zebrafish mutant embryos (hax1 MO); assay: Zebrafish hax1 knock-down neutropenia model, number of neutrophils; format: in vivo; conditions: two days treatment
Procedure: (§2) Zebrafish transgenic lines and wild type were maintained according to standard protocols and handled in accordance with European Union animal protection directive 2010/63/EU. The maintenance was approved by the local government (Tierschutzgesetz § 11, Abs. 1, Nr. 1, husbandry permit 35/9185.46/Uni TÜ). All the experiments were performed in zebrafish embryos under 5 days post fertilization. In this study the inventors used two transgenic (tg) reporter lines, tg(mpo: gfp), where neutrophils express gfp and tg(CD41:gfp),where HSPCs express gfp, both described in the art.
(§3) To generate the jagn1b and hax1 mutants two different approaches were used, CRISPR/Cas9-mediated knock-out and morpholino-based knock down, respectively. On the one hand, to interfere with the function of jagn1b, jagn1b-targeting sgRNA and Cas9 protein RNPs (Alt-R S.p. Cas9 nuclease, v.3, IDT) were injected into the blastomere of 1-cell stage tg (mpo: gfp) embryos, as described in the art. On the other hand, to interfere with hax1 function 1 mM hax1-specific morpholino (GeneTool) was injected into 1-cell stage tg (mpo: gfp) embryos as previously described in the art. […] After two days of treatment, the number of mpo:gfp^+ or CD41:gfp^+ cells where quantified using a Nikon stereo-fluorescent SMZ18 microscope.

[9] = tested on: primary bone marrow CD34+ HSPCs of healthy donors; assay: CFU assay of primary bone marrow CD34+ HSPCs of healthy donors; format: cell-based, human; conditions: 40 nM, compared to DMSO control
Text: FIG. 3A. […] Data represent means±SD from two independent experiments. **P<0.01.

[10] = tested on: jagn1b knock-out zebrafish mutant embryos; assay: Zebrafish jagn1b knock-out neutropenia model, number of neutrophils; format: in vivo; conditions: two days treatment
Procedure: as §2, §3

[11] = prior-art clinical trials, used to inhibit CDKs and induce apoptosis in leukemia cells (Gerson et al. 2018); cited from earlier work
[12] = tested on: in vitro generated neutrophils; assay: Reactive oxygen species (ROS) assay of in vitro generated neutrophils; format: cell-based, human; conditions: differentiated in the presence of 40 nM flavopiridol
[13] = tested on: in vitro generated neutrophils; assay: Chemotaxis assay of in vitro generated neutrophils; format: cell-based, human; conditions: differentiated in the presence of 40 nM flavopiridol
HSPCs (CD41: gfp+ cells) = assay: Zebrafish in vivo model, number of HSPCs in tg(CD41:gfp) embryos; conditions: up to 10 µM, two days, compared to DMSO-treated controls
Procedure: as §2, §3

ELANE-CN iPSCs = assay: Colony-forming unit (CFU) assay of CD34+ cells from EB-based CN-iPSC culture; format: cell-based, human
Procedure: Colony-forming unit (CFU) assay of CD34^+ cells harvested from EB-based CN-iPSC culture on day 14 of differentiation treated with eleven short listed small molecules.
EB-Based Hematopoietic Differentiation of iPSCs iPSCs were cultured on SNL feeder cells for 24 hours and then dissociated using PBS/EDTA (0.02%) for 5 min. EB generation was performed by centrifugation of 2×10^4 cells per EB in 96-well plates using APEL serum-free differentiation medium (Stemcell Technologies) supplemented with bFGF (20 ng/μl) and ROCK Inhibitor (R&D). On day one, BMP4 (40 ng/μl) was added to the culture medium to induce mesodermal differentiation. On day four, EBs were plated on Matrigel-coated 6-well plates (10 EBs/well) in APEL medium supplemented with VEGF (40 ng/μl), SCF (50 ng/μl) and IL-3 (50 ng/μl). For neutrophilic differentiation, the medium was changed 3 days later to fresh APEL medium supplemented with IL3 (50 ng/μl) and G-CSF (50 ng/μl). All cytokines were purchased from R&D Systems if nothing else is indicated. First hematopoietic suspension cells appeared between day 10 and 14. Suspension cells were harvested every 3-4 days and analyzed starting from day 14 to day 32.
The inventors then selected eleven small molecules that could potentially mimic the differentially expressed genes (DEGs) signature between CN and CN-corrected HSPCs and screened the effect of these small molecules on granulopoiesis using their isogenic CN iPSC model.

[14] = tested on: in vitro generated neutrophils; assay: Phagocytosis assay of in vitro generated neutrophils; format: cell-based, human; conditions: differentiated in the presence of 40 nM flavopiridol
[15] = tested on: primary bone marrow CD34+ HSPCs of ELANE-CN, HAX1-CN, JAGN1-CN and SRP54-CN patients; assay: Granulocytic liquid culture differentiation (LCD) of CN patient CD34+ HSPCs; format: cell-based, human; conditions: all CN patients
Procedure: as §1

[16] = three independent ELANE-CN derived iPSCs, 40 nM flavopiridol

SMILES: CN1CC[C@H](c2c(O)cc(O)c3c(=O)cc(-c4ccccc4Cl)oc23)[C@H](O)C1 [flavopiridol]
- viability of neutrophils ([1]; 3 hours): No significant difference
- viability of neutrophils ([1]; 24 hours): No significant difference
- viability of neutrophils ([1]; 48 hours): No significant difference
- early apoptotic cells [2]: about 3%
- late apoptotic cells [2]: less than 2%
- live cells [2]: More than 95%
- viability of CD34+ HSPCs [3]: comparable to that of the DMSO-treated group
- levels of viability upon differentiation [4]: improved levels of viability
- levels of CFU-G [5]: significantly elevated levels of CFU-G in all CN groups
- granulopoiesis: numbers of granulocytes (CD45+CD15+CD11b+, CD45+CD15+CD66b+) and mature neutrophils (CD45+CD15+CD16+) ([6]; both healthy donors, 40 nM, 14 days, flow cytometry): significantly enhanced granulopoiesis
- neutrophil count, morphological examination of cytospin preparations ([6]; healthy donor one (HD1)): no change
- neutrophil count, morphological examination of cytospin preparations ([6]; healthy donor two (HD 2)): a significant increase in neutrophil count
- apoptosis in CD34+ HSPCs [7]: did not induce apoptosis
- number of neutrophils (mpo: gfp+ cells) [8]: significantly restored the number of neutrophils (mpo: gfp^+ cells) to a similar level to wildtype controls; also recorded: increased to a similar level than the wildtype controls
- levels of CFU-G ([9]; healthy donor one (HD1)): significantly elevated levels of CFU-G
- levels of CFU-G ([9]; healthy donor two (HD2)): no significant change
- number of neutrophils (mpo: gfp+ cells) [10]: significantly restored the number of neutrophils (mpo: gfp^+ cells) to a similar level to wildtype controls; also recorded: restored the number of neutrophils (mpo: gfp^+ cells) to a similar level than the wildtype controls
- steady-state blood plasma levels [11]: about 350 nM
- neutrophil function, reactive oxygen species (ROS) [12]: did not affect neutrophil function
- neutrophil function, chemotaxis [13]: did not affect neutrophil function
- total number of HSPCs (CD41: gfp+ cells) (HSPCs (CD41: gfp+ cells)): did not affect
- granulopoiesis in CN iPSCs (screening) (ELANE-CN iPSCs; screen of eleven small molecules in isogenic CN iPSC model): markedly restored the granulopoiesis
- CFU-macrophages (CFU-Ms) (ELANE-CN iPSCs; [16]): significant decrease
- colony-forming unit-granulocytes (CFU-G) (ELANE-CN iPSCs; [16]): significant increase
- neutrophil function, phagocytosis [14]: did not affect neutrophil function
- granulopoiesis: numbers of granulocytes and mature neutrophils by flow cytometry ([15]; 40 nM, 14 days): significant restoration of granulopoiesis
- granulopoiesis, morphological examination of cytospin preparations ([15]; day 14): significant restoration or restoration trend of granulopoiesis
